Results reported in publication PMC8881512 (Nature Communications, 2022).
Several values for one entry are separate records, joined by “and”; a condition that tells them apart may be missing. Equal entries are not always repeated.

Columns and labels:
T47D cells = assay: Colony-formation assay, T47D (wild-type and ESR1 knock-in); assay type: cell-based; conditions: 1 μM 4OHT, 0.2 μM Fulvestrant, 2 μM VT02956, 2 μM VT02484, 14 days, Fig.6h
Method: For colony formation, cells were plated into 12-well plate with a constant density at the start date of treatment in triplicate with the indicated compounds and further cultured for 10 days (MCF-7) or 14 days (T47D). The drugs were refreshed every 2–4 days. The colonies were then fixed with 4% paraformaldehyde for 15 min and stained with 0.1% crystal violet in 20% methanol solution for quantification.

MCF-7 cells = assay: Colony-formation assay, MCF-7 (wild-type and ESR1 knock-in); assay type: cell-based, human; conditions: for Rel. colony (colony-formation assay): MCF-7, VT02956 (2 μM), VT02484 (2 μM) or Palbociclib (0.1 μM) alone or in combinations, Fig.6d; for Relative colony formation: 1 μM 4OHT, 0.2 μM Fulvestrant, 2 μM VT02956, 2 μM VT02484, Fig.6g
Method: […] The drugs were refreshed every 2–4 days. The colonies were then fixed with 4% paraformaldehyde for 15 min and stained with 0.1% crystal violet in 20% methanol solution for quantification.

[1] = test system: VGLL3, ESR1, YAP/TAZ target and ERα target gene mRNA in MCF-7 cells; assay: qPCR gene expression in MCF-7 cells;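 as to all read-outs here: SYBR Green real-time PCR, mRNA abundance computed by the ΔCt approach with GAPDH transcript as the internal normalisation control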; conditions: MCF-7, 2 µM for 2 days; for ANKRD1 mRNA (qPCR, relative to DMSO) / LATS2 mRNA (qPCR, relative to DMSO) / VGLL3 mRNA (qPCR, relative to DMSO): sheet Fig.s7b (Supplementary Fig. 7c); for ESR1 mRNA (qPCR, relative to DMSO) / GREB1 mRNA (qPCR, relative to DMSO) / TFF1 mRNA (qPCR, relative to DMSO): sheet Fig.s7d (Supplementary Fig. 7e)
[2] = test system: YAP/TAZ target, ESR1 and ERα target gene mRNA in BTO-02; assay: qPCR gene expression in breast tumour organoids BTO-02; assay type: cell-based, human; conditions: BTO-02, 2 μM for 2 days; for ANKRD1 mRNA (qPCR, relative to DMSO) / CTGF mRNA (qPCR, relative to DMSO) / CYR61 mRNA (qPCR, relative to DMSO) / VGLL3 mRNA (qPCR, relative to DMSO): Fig.5g; for ESR1 mRNA (qPCR, relative to DMSO) / GREB1 mRNA (qPCR, relative to DMSO) / TFF1 mRNA (qPCR, relative to DMSO): Fig.5h;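 as to all read-outs here: relative mRNA abundance computed by the ΔCt approach from SYBR-based real-time qPCR, with GAPDH as internal housekeeping reference for normalisation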
LATS2 = target: T1, LATS2 (Homo sapiens, UniProt Q9NRM7); assay: In vitro LATS2 kinase inhibition assay (HTRF); assay type: biochemical; set-up: key to LATS2 kinase activity: % inhibition = (HIGH − ratio)×100/(HIGH − LOW); conditions: for LATS2 kinase activity: Fig.5c; for IC50: in vitro, 6000 μM ATP, n = 2
T1 construct: purchased Signalchem
T1 sequence (Q9NRM7 1-1088): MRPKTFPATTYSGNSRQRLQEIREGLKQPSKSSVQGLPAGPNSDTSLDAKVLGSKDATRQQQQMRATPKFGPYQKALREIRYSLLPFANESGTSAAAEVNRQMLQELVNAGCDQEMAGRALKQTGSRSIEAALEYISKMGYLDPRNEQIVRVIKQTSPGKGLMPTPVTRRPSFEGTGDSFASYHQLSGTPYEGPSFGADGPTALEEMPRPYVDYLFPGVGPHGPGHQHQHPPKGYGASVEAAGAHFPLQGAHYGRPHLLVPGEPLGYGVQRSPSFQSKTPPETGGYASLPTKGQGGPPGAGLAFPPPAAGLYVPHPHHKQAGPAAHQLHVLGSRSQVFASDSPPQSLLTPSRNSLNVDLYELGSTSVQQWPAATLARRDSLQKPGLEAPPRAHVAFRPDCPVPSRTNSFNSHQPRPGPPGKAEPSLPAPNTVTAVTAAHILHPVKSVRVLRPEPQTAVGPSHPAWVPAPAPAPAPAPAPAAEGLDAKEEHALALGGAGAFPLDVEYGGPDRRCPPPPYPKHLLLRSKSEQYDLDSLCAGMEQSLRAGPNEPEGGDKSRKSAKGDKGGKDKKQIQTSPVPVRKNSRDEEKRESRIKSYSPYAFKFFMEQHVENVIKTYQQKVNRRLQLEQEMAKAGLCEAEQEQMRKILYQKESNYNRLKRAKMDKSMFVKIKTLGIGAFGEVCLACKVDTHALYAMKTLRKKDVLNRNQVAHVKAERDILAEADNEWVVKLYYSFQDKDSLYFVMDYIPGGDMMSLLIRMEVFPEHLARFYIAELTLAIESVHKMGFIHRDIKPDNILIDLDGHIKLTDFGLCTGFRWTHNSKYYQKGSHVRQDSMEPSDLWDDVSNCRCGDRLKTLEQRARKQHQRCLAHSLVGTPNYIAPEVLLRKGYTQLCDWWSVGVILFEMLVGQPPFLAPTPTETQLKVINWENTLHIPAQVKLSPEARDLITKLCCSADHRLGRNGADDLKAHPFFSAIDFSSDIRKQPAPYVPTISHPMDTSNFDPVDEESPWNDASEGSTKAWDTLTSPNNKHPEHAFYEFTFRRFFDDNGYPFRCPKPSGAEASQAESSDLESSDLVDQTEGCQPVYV
Method: The kinase activity of LATS1 and LATS2 were performed based on an adapted and optimised HTRF Kinase Binding assay (Cisbio). Briefly, the concentration-response curves with compound concentration range of 10,000 to 0.17 nM with 3-fold serial dilution and 1X Kinase enzymatic buffer (Cisbio), 1.2 nM LATS1 or LATS2 kinases (Signalchem), 0.5 μM biotinylation labelled YAP peptide (Vivace) were dispensed into 384-well microplates by automated digital dispenser Echo/POD with the final DMSO concentration in all wells at 0.5%. To start the enzymatic reaction, 3000 μM ATP (for LATS1) or 6000 μM ATP (for LATS2) were added using multidrop in a 10-μl volume and incubated for 90 min at 30 °C. Subsequently, 10 μl of HTRF KinEASE detection buffer (Cisbio) containing 31.25 nM acceptor conjugate (streptavidin-XL665) and 1:100 donor conjugate (TK antibody labelled with Eu^3+-Cryptate) mixture were added and incubated at RT for 60 min, and the fluorescence emission at two different wavelengths was measured (615 nm and 665 nm) on Envision. […] The inhibition was calculated by the formula, inhibition % = (HIGH − ratio) × 100/ (High − LOW). HIGH control stands for 0.5% DMSO with kinase and LOW control stands for 0.5% DMSO without kinase. The data was analysed by Xlfit software. The IC50 values were determined by fitting to a standard four-parameter logistic using GraphPad Prism.

[3] = test system: YAP target, ESR1 and ERα target gene mRNA in T47D cells; assay: qPCR gene expression in T47D cells; assay type: cell-based, human; conditions: 2 µM for 2 days; for ANKRD1 mRNA (qPCR, relative to DMSO) / LATS2 mRNA (qPCR, relative to DMSO) / VGLL3 mRNA (qPCR, relative to DMSO): sheet Fig.s7c (Supplementary Fig. 7d); for ESR1 mRNA (qPCR, relative to DMSO) / GREB1 mRNA (qPCR, relative to DMSO) / TFF1 mRNA (qPCR, relative to DMSO): sheet Fig.s7e (Supplementary Fig. 7f)
Description: PCR primer pairs included

Row | LATS2 kinase activity (LATS2; Conc. 0.00016935 (µM)) | SMILES | Relative colony formation (T47D cells; T47D ERa Y537S knock-in) | Relative colony formation (T47D cells; T47D WT) | Rel. colony (colony-formation assay) (MCF-7 cells) | Relative colony formation (MCF-7 cells; MCF-7 ERa D538G knock-in) | Relative colony formation (MCF-7 cells; MCF-7 ERa Y537S knock-in) | Relative colony formation (MCF-7 cells; MCF-7 WT) | ANKRD1 mRNA (qPCR, relative to DMSO) [1] | LATS2 mRNA (qPCR, relative to DMSO) [1] | VGLL3 mRNA (qPCR, relative to DMSO) [1] | ESR1 mRNA (qPCR, relative to DMSO) [1] | GREB1 mRNA (qPCR, relative to DMSO) [1] | TFF1 mRNA (qPCR, relative to DMSO) [1] | ANKRD1 mRNA (qPCR, relative to DMSO) [2] | CTGF mRNA (qPCR, relative to DMSO) [2] | CYR61 mRNA (qPCR, relative to DMSO) [2] | VGLL3 mRNA (qPCR, relative to DMSO) [2] | ESR1 mRNA (qPCR, relative to DMSO) [2] | GREB1 mRNA (qPCR, relative to DMSO) [2] | TFF1 mRNA (qPCR, relative to DMSO) [2] | other results
1 | 96.8406 and 89.7881 | CCN(CC)c1nc(-c2ccncc2)nc2c(-c3ccc(Cl)cc3)cccc12 [VT02484] | 0.96 and 0.91 and 1.03 | 1.12 and 0.89 and 0.98 | 0.94 and 1.05 and 1.08 | 1.12 and 1.04 and 1.03 | 0.96 and 0.91 and 1.03 | 0.96 and 0.89 and 1.02 | 0.9375 and 1.0569 and 0.9783 | 1.073 and 0.8452 and 1.234 | 1.127 and 1.023 and 0.9343 | 0.9424 and 1.008 and 0.8622 | 1.01 and 0.9864 and 0.9917 | 1.063 and 1.169 and 0.8376 | 1.2497 and 1.0358 and 0.9991 | 1.029 and 0.9638 and 0.9395 | 1.1798 and 0.914 and 0.9308 | 1.193 and 1.051 and 1.05 | 1.0519 and 1.0384 and 1.0263 | 1.1915 and 1.2181 and 1.0643 | 1.1521 and 1.0774 and 1.1271 | LATS2 kinase activity (LATS2; Conc. 0.00050805 (µM)): 86.8123 and 94.4369; LATS2 kinase activity (LATS2; Conc. 0.00152416 (µM)): 95.4849 and 93.7686; LATS2 kinase activity (LATS2; Conc. 0.00457247 (µM)): 92.5091 and 95.5041; LATS2 kinase activity (LATS2; Conc. 0.0137174 (µM)): 94.4128 and 88.6006; LATS2 kinase activity (LATS2; Conc. 0.0411523 (µM)): 86.8411 and 90.365; LATS2 kinase activity (LATS2; Conc. 0.123457 (µM)): 93.2446 and 92.7206; LATS2 kinase activity (LATS2; Conc. 0.37037 (µM)): 94.4513 and 95.1243; LATS2 kinase activity (LATS2; Conc. 1.11111 (µM)): 88.3362 and 87.5718; LATS2 kinase activity (LATS2; Conc. 3.33333 (µM)): 84.322 and 85.4373; LATS2 kinase activity (LATS2; Conc. 10 (µM)): 81.6154 and 76.4186; IC50 (LATS2): > 10000 nM; ANKRD1 mRNA (qPCR, relative to DMSO) [3]: 0.9511 and 0.8877 and 0.7788; LATS2 mRNA (qPCR, relative to DMSO) [3]: 1.062 and 1.257 and 1.047; VGLL3 mRNA (qPCR, relative to DMSO) [3]: 1.036 and 0.9545 and 1.103; ESR1 mRNA (qPCR, relative to DMSO) [3]: 1.074 and 0.8288 and 1.02; GREB1 mRNA (qPCR, relative to DMSO) [3]: 1.002 and 1.049 and 0.9359; TFF1 mRNA (qPCR, relative to DMSO) [3]: 1.09 and 1.077 and 1.0923
2 | 60.6319 and 66.1157 | NCC1CCN(c2nc(-c3ccncc3)nc3c(C#CCO)cccc23)CC1 [VT02956] | 0.41 and 0.42 and 0.48 | 0.39 and 0.48 and 0.51 | 0.41 and 0.36 and 0.33 | 0.39 and 0.37 and 0.34 | 0.41 and 0.42 and 0.45 | 0.32 and 0.27 and 0.35 | 39.7272 and 41.5085 and 42.3168 | 3.381 and 2.554 and 3.922 | 57.2973 and 54.8732 and 38.032 | 0.1783 and 0.1761 and 0.1829 | 0.3188 and 0.332 and 0.2804 | 0.2697 and 0.3023 and 0.214 | 120.896 and 131.016 and 139.426 | 10.8797 and 10.8657 and 10.8616 | 13.1424 and 13.7264 and 12.9668 | 31.437 and 32.235 and 31.533 | 0.1649 and 0.1855 and 0.1729 | 0.3079 and 0.3261 and 0.3014 | 0.0863 and 0.0862 and 0.094 | LATS2 kinase activity (LATS2; Conc. 0.00050805 (µM)): 35.6649 and 36.636; LATS2 kinase activity (LATS2; Conc. 0.00152416 (µM)): 7.393 and 7.887; IC50 (LATS2): 0.52 nM; ANKRD1 mRNA (qPCR, relative to DMSO) [3]: 151.05 and 152.548 and 126.932; LATS2 mRNA (qPCR, relative to DMSO) [3]: 2.078 and 1.8081 and 2.057; VGLL3 mRNA (qPCR, relative to DMSO) [3]: 25.7059 and 26.0713 and 24.6224; ESR1 mRNA (qPCR, relative to DMSO) [3]: 0.1433 and 0.1061 and 0.1464; GREB1 mRNA (qPCR, relative to DMSO) [3]: 0.2102 and 0.1984 and 0.2087; TFF1 mRNA (qPCR, relative to DMSO) [3]: 0.06716 and 0.07329 and 0.06992
